Laboratory results as given in US20250179032A1, “HETEROCYCLIC INHIBITORS OF GLUT9 FOR TREATMENT OF DISEASE” (HORIZON THERAPEUTICS IRELAND DAC, priority 2022, published 2025).
Read-outs that look alike come from different tables or passages of the source.

Biological target: T1, H. sapiens SLC2A9 variant 2 (GLUT9B) (Homo sapiens, UniProt Q9NRM0)
T1 sequence (Q9NRM0 1-511 isoform Q9NRM0-2): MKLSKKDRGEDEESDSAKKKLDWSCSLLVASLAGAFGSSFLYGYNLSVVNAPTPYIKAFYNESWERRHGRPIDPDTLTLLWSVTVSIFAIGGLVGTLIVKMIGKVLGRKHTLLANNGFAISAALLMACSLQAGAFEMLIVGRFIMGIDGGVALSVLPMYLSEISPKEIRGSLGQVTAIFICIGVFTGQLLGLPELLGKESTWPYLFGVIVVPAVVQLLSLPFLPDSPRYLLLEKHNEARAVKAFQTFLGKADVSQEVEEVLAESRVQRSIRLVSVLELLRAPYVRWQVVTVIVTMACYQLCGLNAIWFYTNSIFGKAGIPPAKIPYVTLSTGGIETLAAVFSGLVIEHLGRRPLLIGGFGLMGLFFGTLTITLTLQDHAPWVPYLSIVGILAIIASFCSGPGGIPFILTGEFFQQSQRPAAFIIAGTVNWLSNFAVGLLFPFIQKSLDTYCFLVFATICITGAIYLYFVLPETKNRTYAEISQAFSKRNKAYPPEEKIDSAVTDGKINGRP
Assay: GLUT9 functional assay: uric acid uptake in HEK293T cells, allantoin formation by MS/MS as proxy of GLUT9B inhibition
Type: cell-based
Conditions: HEK293T cells stably expressing GLUT9B and transiently A. oryzae uricase, uric acid 0.3 mM, 37° C.
Summary of the method: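 Inhibition of GLUT9B-mediated urate uptake read as reduced allantoin formation, measured by MS/MS against allantoin standards in HEK293T matrix with log-logistic fitting. Stable GLUT9B HEK293T cells carrying transfected A. oryzae uricase were incubated 15 or 60 min at 37° C with uric acid at Km (0.3 mM), pH 7.4 gluconate buffer.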

[1] = 60 minute assay, read-out: 60 min IC50

IC50 [1] [nM] | IC50 (15 minute assay, read-out: 15 min IC50) [nM] | SMILES
< 500 |  | COCCCc1cnc(-c2ccc(S(C)(=O)=O)cc2)c(N2CCC(C(=O)O)CC2)n1 [Compound 230, 1-(6-(3-methoxypropyl)-3-(4-(methylsulfonyl)phenyl)pyrazin-2-yl)piperidine-4-carboxylic acid]
< 500 |  | COCCCc1cnc(-c2ccc3c(c2)COC3=O)c(N2CCC(C(=O)O)CC2)c1 [Compound 232, 1-(5-(3-methoxypropyl)-2-(1-oxo-1,3-dihydroisobenzofuran-5-yl)pyridin-3-yl)piperidine-4-carboxylic acid]
> 2000 |  | COCCCc1cnc(-c2ccc3c(c2)CCS3(=O)=O)c(N2CCC(C(=O)O)CC2)n1 [Compound 233, 1-(3-(1,1-dioxido-2,3-dihydrobenzo[b]thiophen-5-yl)-6-(3-methoxypropyl)pyrazin-2-yl)piperidine-4-carboxylic acid]
> 2000 |  | COCCCc1cnc(-c2ccc3c(c2)CCCS3(=O)=O)c(N2CCC(C(=O)O)CC2)n1 [Compound 234, 1-(3-(1,1-dioxidothiochroman-6-yl)-6-(3-methoxypropyl)pyrazin-2-yl)piperidine-4-carboxylic acid]
 | > 2000 | COCCCc1cnc(-c2cc(C(F)(F)F)c3occc3c2)c(N2CCC(C(=O)O)CC2)n1 [Compound 237, 1-(6-(3-methoxypropyl)-3-(7-(trifluoromethyl)benzofuran-5-yl)pyrazin-2-yl)piperidine-4-carboxylic acid]
500 to 2000 |  | COCCCc1cnc(-c2cc(OC(F)(F)F)c3occc3c2)c(N2CCC(C(=O)O)CC2)n1 [Compound 238, 1-(6-(3-methoxypropyl)-3-(7-(trifluoromethoxy)benzofuran-5-yl)pyrazin-2-yl)piperidine-4-carboxylic acid]
< 500 |  | COCCCc1cnc(-c2cc(C)c3occc3c2)c(N2CCC(C(=O)O)CC2)n1 [Compound 239, 1-(6-(3-methoxypropyl)-3-(7-methylbenzofuran-5-yl)pyrazin-2-yl)piperidine-4-carboxylic acid]
< 500 |  | COCCCc1cnc(-c2cc(C(F)F)c3occc3c2)c(N2CCC(C(=O)O)CC2)n1 [Compound 240, 1-(3-(7-(difluoromethyl)benzofuran-5-yl)-6-(3-methoxypropyl)pyrazin-2-yl)piperidine-4-carboxylic acid]
> 2000 |  | COCCCc1cnc(-c2ccc3occc3n2)c(N2CCC(C(=O)O)CC2)n1 [Compound 241, 1-(3-(furo[3,2-b]pyridin-5-yl)-6-(3-methoxypropyl)pyrazin-2-yl)piperidine-4-carboxylic acid]
500 to 2000 |  | COCCCc1cnc(-c2ccc3occ(C)c3c2)c(N2CCC(C(=O)O)CC2)n1 [Compound 242, 1-(6-(3-methoxypropyl)-3-(3-methylbenzofuran-5-yl)pyrazin-2-yl)piperidine-4-carboxylic acid]
< 500 |  | COCCCc1cnc(-c2cc(F)c3occc3c2)c(N2CCCC(C(=O)O)CC2)n1 (stereo not shown) [Compound 243, 1-(3-(7-fluorobenzofuran-5-yl)-6-(3-methoxypropyl)pyrazin-2-yl)azepane-4-carboxylic acid]
< 500 |  | COCCCc1cnc(-c2cc(F)c3c(c2)OCO3)c(N2CCCC(C(=O)O)CC2)n1 (stereo not shown) [Compound 244, 1-(3-(7-fluorobenzo[d][1,3]dioxol-5-yl)-6-(3-methoxypropyl)pyrazin-2-yl)azepane-4-carboxylic acid]
< 500 |  | COCCCc1cnc(-c2cc(F)c3occc3c2)c(N2CCCC(C(=O)O)CC2)c1 (stereo not shown) [Compound 245, 1-(2-(7-Fluorobenzofuran-5-yl)-5-(3-Methoxypropyl)Pyridin-3-yl)azepane-4-carboxylic acid]
< 500 |  | COCCCc1cnc(-c2cc(F)c3c(c2)OCO3)c(N2CCCC(C(=O)O)CC2)c1 (stereo not shown) [Compound 246, 1-(2-(7-fluorobenzo[d][1,3]dioxol-5-yl)-5-(3-methoxypropyl)pyridin-3-yl)azepane-4-carboxylic acid]
500 to 2000 |  | COCCCc1cnc(-c2ccc3c(c2)OCO3)c(N2CCC3(CC(C(=O)O)C3)C2)c1 (stereo not shown) [Compound 247, 6-(2-(benzo[d][1,3]dioxol-5-yl)-5-(3-methoxypropyl)pyridin-3-yl)-6-azaspiro[3.4]octane-2-carboxylic acid]
> 2000 |  | COCCCc1cnc(-c2ccc3c(c2)OCO3)c(N2CC3(CC(C(=O)O)CO3)C2)c1 (stereo not shown) [Compound 249, 2-(2-(benzo[d][1,3]dioxol-5-yl)-5-(3-methoxypropyl)pyridin-3-yl)-5-oxa-2-azaspiro[3.4]octane-7-carboxylic acid]
> 2000 |  | COCCCc1cnc(-c2ccc3c(c2)OCO3)c(N2CC3(CC(C(=O)O)C3)C2)c1 [Compound 250, 2-(2-(benzo[d][1,3]dioxol-5-yl)-5-(3-methoxypropyl)pyridin-3-yl)-2-azaspiro[3.3]heptane-6-carboxylic acid]
> 2000 |  | COCCCc1cnc(-c2ccc3c(c2)OCO3)c(N2CC(C(=O)O)C2)c1 [Compound 251, 1-(2-(benzo[d][1,3]dioxol-5-yl)-5-(3-methoxypropyl)pyridin-3-yl)azetidine-3-carboxylic acid]
> 2000 |  | COCCCc1cnc(-c2ccc3c(c2)OCO3)c(N2CC(OC)(C(=O)O)C2)c1 [Compound 252, 1-(2-(benzo[d][1,3]dioxol-5-yl)-5-(3-methoxypropyl)pyridin-3-yl)-3-methoxyazetidine-3-carboxylic acid]
< 500 |  | COCCCc1cnc(-c2ccc3occ(Cl)c3c2)c(N2CCC(C(=O)O)CC2)n1 [Compound 253, 1-(3-(3-chlorobenzofuran-5-yl)-6-(3-methoxypropyl)pyrazin-2-yl)piperidine-4-carboxylic acid]
< 500 |  | COCCCc1cnc(-c2ccc(SC)cc2)c(N2CCC(C(=O)O)CC2)n1 [Compound 254, 1-(6-(3-methoxypropyl)-3-(4-(methylthio)phenyl)pyrazin-2-yl)piperidine-4-carboxylic acid]
500 to 2000 |  | COCCCc1cnc(-c2ccc(F)c(F)c2)c(N2CCC(C(=O)O)CC2)n1 [Compound 255, 1-(3-(3,4-difluorophenyl)-6-(3-methoxypropyl)pyrazin-2-yl)piperidine-4-carboxylic acid]
